Measurements: US20240325460A1, “MOLECULAR BACTE[…] CONTROL SKIN ENZYMATIC ACTIVITY” (The Regents of the University of California, priority 2017, published 2024)

What was measured:
[1] = tested on: normal human epidermal keratinocytes (NHEKs); assay: Trypsin-like activity of NHEK conditioned medium (Boc-Val-Pro-Arg-AMC substrate); type: cell-based
Method: (§1) Culture of primary human keratinocytes. Neonatal NHEKs (ThermoFisher Scientific, Waltham, MA) were cultured in EpiLife medium (ThermoFisher Scientific) supplemented with 1× EpiLife defined growth supplement (ThermoFisher Scientific), 60 μM CaCl2, and 1× antibiotic-antimycotic (PSA; 100 U/ml penicillin, […] streptomycin, 250 ng/ml amphotericin B; ThermoFisher Scientific) at 37° C., 5% CO2. For experiments, NHEKs were grown to 70% confluency followed by differentiation in high calcium EpiLife medium (2 mM CaCl2) for 48 hours before treatment with bacteria sterile filtered supernatant. […] For bacterial supernatant treatments, differentiated NHEKs were treated with sterile filtered bacterial supernatant at 5% by volume to EpiLife medium. NHEKs were only used for experiments between passages 3 and 5.
Protease activity assays. […] Relative fluorescent intensity was analyzed with a SpectraMAX Gemini EM fluorometer (ThermoFisher Scientific) at RTwith readings every 2 hours for 24 hours. BODIPY FL casein plates were read at ex: 485 nm and em: 530 nm. Elastin-like and MMP substrate plates were read at ex: 485 nm and em: 515 nm. Trypsin-like substrate plates were read at ex: 354 nm and em: 435 nm. […]
Trypsin Activity Analysis. […] Relative fluorescent intensity (ex: 354 nm, em: 435 nm) was analyzed with a SpectraMAX Gemini EM fluorometer (Thermo Fisher Scientific). […]

[2] = tested on: KLK mRNA expression in NHEKs; assay: KLK mRNA expression in NHEKs by quantitative real-time PCR; type: cell-based, human; conditions: synthetic peptide, normalized to GAPDH
Method: Quantitative real-time PCR. RNA was isolated from NHEKs using Purelink RNA isolation columns (ThermoFisher Scientific) according to the manufacturer's instructions. RNA was quantified using a Nanodrop spectrophotometer (ThermoFisher Scientific), and 500 ng of RNA was reverse-transcribed using the iScript cDNA synthesis kit (Bio-Rad, Irvine, CA). Quantitative real-time PCR reactions were ran on a CFX96 real-time detection system (Bio-Rad) using gene-specific primers and TaqMan probes (ThermoFisher Scientific).
RNA isolation and quantitative real-time PCR. All RNA was isolated using the Purelink RNA isolation kit according to manufacturer's instructions (Thermo Fisher Scientific). For NHEKs, 350 μL RNA lysis buffer (with 1% β-mercaptoethanol) was added directly to cells. For mouse tissue, 0.5 cm^2 full thickness skin was bead beat (2× 30 sec, 2.0 mm zirconia bead) in 750 μL of RNA lysis buffer with 5 minutes on ice in between. Tissue was than centrifuged (10 min, 13,000 RPM, 4° C.), followed by adding 350 μL of clear lysate to 70% EtOH and column based isolation of RNA. […] After RNA isolation, samples were quantified with a Nanodrop (ThermoFisher Scientific), and 500 ng of RNA was reverse-transcribed using the iScript cDNA synthesis kit (Bio-Rad). qPCR reactions were ran on a CFX96 Real-Time Detection System (Bio-Rad). […]

[3] = tested on: normal human epidermal keratinocytes (NHEKs); assay: RNA-Seq transcriptional profiling of NHEKs; type: cell-based; conditions: synthetic peptide, 24 h
Method: RNA sequencing. RNA was submitted to the University of California, San Diego (UCSD) genomic core facility for library preparation and sequencing. TruSeq mRNA Library Prep Kit (Illumina) was used for library prep followed by high-throughput sequencing on a HiSeq 2500 sequencer (Illumina). Data was analyzed using Partek Flow and Partek Genomics Suite software and gene ontology analysis was performed using the PANTHER classification system (http[://]pantherdb.org).

[4] = tested on: normal human epidermal keratinocytes (NHEKs); assay: Total protease activity of NHEK conditioned medium (BODIPY FL casein); type: cell-based; conditions: 800 μg ml applied to 24-hour posttreatment conditioned medium
Method: as §1
Protease activity assays. […] Relative fluorescent intensity was analyzed with a SpectraMAX Gemini EM fluorometer (ThermoFisher Scientific) at RTwith readings every 2 hours for 24 hours. BODIPY FL casein plates were read at ex: 485 nm and em: 530 nm. Elastin-like and MMP substrate plates were read at ex: 485 nm and em: 515 nm. Trypsin-like substrate plates were read at ex: 354 nm and em: 435 nm.

Substance	dose and time dependence of trypsin activity stimulation in NHEKs ([1]; synthetic peptide)	trypsin activity in NHEKs treated with synthetic PSM peptide ([1]; synthetic peptide added to NHEKs for up to 24 h)	dose and time dependence of KLK6 mRNA expression in NHEKs [2]	transcriptional profile (RNA-Seq) of NHEKs [3]	effect of serine protease inhibitor on S. aureus-induced total protease activity [4]
f-MEFVAKLFKFFKDLLGKFLGNN [PSMα3]	dose and time dependent manner	strongest PSMα trypsin activity inducers	dose and time dependent manner	broad effect on expression of genes related to the skin barrier	
aprotinin					confirmed that this activity was due to serine proteases
